The assay concerns the target Human recombinant LSD1 protein (Homo sapiens (Human), UniProt O60341). Put plainly: LSD1 enzymatic activity, AlphaLISA demethylation assay. The conditions noted are these: 4 nM LSD1, 80 nM Biotin-H3K4Me peptide substrate, 1% DMSO, 60 minutes reaction. Format: biochemical. Here is the method: Human recombinant LSD1 protein expressed in E. coli cells was purchased from Active Motif (Carlsbad, Calif.). Biotin-labeled Histone H3K4Me peptide (residues 1-21 with Lys 4 monomethylated) substrate was purchased from Anaspec (Fremont, Calif.). Enzymatic activity was assessed using the AlphaLISA technology from Perkin Elmer Life Sciences (Waltham, Mass.). 2.5 μL of compound solution and 5 μL of LSD1 solutions in the assay buffer (50 mM Tris, pH 9.0, 50 mM NaCl with 0.01% Tween20 and 1 mM DTT added right before the assay) were added into a white low volume 384 well microtiter plate. This mixture solution was incubated for 15 minutes with gentle shaking at room temperature. Demethylation reaction was initiated by adding 2.5 μL of Biotin-H3K4Me peptide substrate solution in the assay buffer. Final concentrations of LSD1, Biotin-H3K4Me peptide substrate, and DMSO were 4 nM, 80 nM, and 1%, respectively. The reaction was allowed to proceed for 60 minutes in dark with gentle shaking at room temperature, after which 5 μL of Anti-H3K4 AlphaLISA acceptor beads in detection buffer from the manufacturer was added into the reaction mixture followed by incubation for 60 minutes. 10 μL of Streptavidin labeled AlphaLISA donor beads in detection buffer was added into the mixture followed by 30-minute incubation. Final acceptor and donor beads concentrations were both at 10 μg/mL. Plates were read on a BMG CLARIOStar multimode plate reader from BMG Labtech (Ortenberg, Germany) with an excitation wavelength of 680 nm and emission wavelength of 615 nm. IC50 values of inhibitors were obtained by fitting the fluorescence intensity vs inhibitor concentrations in a sigmoidal dose-response curve (variable slope) with a non-linear regression using Prism 7 (La Jolla, Calif.).
(Bead proximity is the source of the signal in Alpha formats.)

In general, IC50 refers to the point on the concentration scale where inhibition reaches its midpoint.

Turning to `CCn1ncc2cc(-c3ncc4c(ncn4CC4CCN(C)CC4)c3-c3ccc(C#N)c(F)c3)ccc21` [compound 4, 4-(6-(1-ethyl-1H-indazol-5-yl)-3-((1-methylpiperidin-4-yl)methyl)-3H-imidazo[4,5-c]pyridin-7-yl)-2-fluorobenzonitrile], the IC50 was 372 nM. Turning to `CN1CCOc2cc(-c3ncc4c(ncn4CC4CCCNCC4)c3-c3ccc(C#N)cc3)ccc21` (stereo not drawn) [compound 24, 4-(3-(azepan-4-ylmethyl)-6-(4-methyl-3,4-dihydro-2H-benzo[b][1,4]oxazin-7-yl)-3H-imidazo[4,5-c]pyridin-7-yl)benzonitrile], the IC50 amounted to 11 nM. On to `CN1CCC(Cn2cnc3c(-c4ccc(C#N)cc4)c(-c4ccc5c(c4)OCCN5C)ncc32)CC1` [compound 10, 4-(6-(4-methyl-3,4-dihydro-2H-benzo[b][1,4]oxazin-7-yl)-3-((1-methylpiperidin-4-yl)methyl)-3H-imidazo[4,5-c]pyridin-7-yl)benzonitrile], for which the IC50 is 53.1 nM. For `CN1CCOc2cc(-c3ncc4c(ncn4CC4CCNCC4)c3-c3ccc(C#N)cc3)ccc21` [compound 26, 4-(6-(4-methyl-3,4-dihydro-2H-benzo[b][1,4]oxazin-7-yl)-3-(piperidin-4-ylmethyl)-3H-imidazo[4,5-c]pyridin-7-yl)benzonitrile], the IC50 amounted to 14.7 nM. Turning to `CN1CCC(Cn2cnc3c(-c4ccc(C#N)cc4)c(-c4ccc5c(c4)OCCN5C)ncc32)C1` (stereo not drawn) [compound 33, 4-(6-(4-methyl-3,4-dihydro-2H-benzo[b][1,4]oxazin-7-yl)-3-((1-methylpyrrolidin-3-yl)methyl)-3H-imidazo[4,5-c]pyridin-7-yl)benzonitrile], the IC50 was found to be 29.5 nM.

Turning to `CN1CC[C@H](Cn2cnc3c(-c4ccc(C#N)c(F)c4)c(-c4ccc5c(cnn5C)c4)ncc32)C1` [compound 16, (S)-2-fluoro-4-(6-(1-methyl-1H-indazol-5-yl)-3-((1-methylpyrrolidin-3-yl)methyl)-3H-imidazo[4,5-c]pyridin-7-yl)benzonitrile], the IC50 stood at 28 nM.

(Values after patent publication US11944614B2, “Imidazo[4,5-c]pyridine compounds as LSD-1 inhibitors” (THE REGENTS OF THE UNIVERSITY OF MICHIGAN, priority 2018, dated 2024).)
